Test results reported in PMC12431657, “Discovery and mechanistic insights of dibenzoylmethane as a broad spectrum inhibitor of coronavirus” (PLOS Pathogens, 2025).
Where a name gives a salt, the structure may show the parent alone. Read-outs that look alike come from different tables or passages of the source.

Columns and labels:
Huh-7 cells = assay: Cytotoxicity assay (CCK-8), Huh-7 cells
HCoV-OC43 [1] = tested on: HCoV-OC43; design: species or system RD; HTS, protection from HCoV-OC43 induced cell death, luminescent cell viability (CellCounting-Lite 2.0), inhibition rate; conditions: 24 h, 10 µM; inhibitor
HCoV-229E = tested on: HCoV-229E; design: species or system Huh-7; HTS, protection from HCoV-229E induced cell death, luminescent cell viability (CellCounting-Lite 2.0), inhibition rate; conditions: 24 h, 10 µM; inhibitor
HCoV-OC43 [2] = assay: Antiviral activity in vitro, qRT-PCR, HCoV-OC43 in RD cells; format: cell-based; conditions: HCoV-OC43; cell line not printed (S6C Fig)

Row | SMILES | selectivity index (SI) (Huh-7 cells; CC50 versus EC50, HCoV-229E in Huh-7 and HCoV-OC43 in RD cells) | OC43 Inhibition rate (HCoV-OC43 [1]) | 229E Inhibition rate (HCoV-229E) | selectivity index (SI) (Huh-7 cells) | suppression of viral replication (HCoV-OC43 [2])
1 | C=C(C)C(CC=C(C)C)Cc1c(O)cc(OC)c2c1O[C@H](c1ccc(O)cc1OC)CC2=O (stereo partly drawn) [(2S)-2’-methoxykurarinone] | below 25 |  |  |  | 
2 | O=C1C=C2C=C[C@@H]3C[C@@]2(O1)[C@H]1CCCCN31 [(-)-Securinine] |  | 38.4% | 43% |  | 
3 | C[S@@+]([O-])CCCCN=C=S [(R)-sulforaphane] |  |  |  | below 25 | 
4 | CC[C@@]1(O)C(=O)OCc2c1cc1n(c2=O)Cc2cc3cc(O)ccc3nc2-1 [(S)-10-Hydroxycamptothecin] |  | -0.8 | 18.7 |  | 
5 | O=C1C=C2C=C[C@@H]3C[C@@]2(O1)[C@@H]1CCCCN31 [Allosecurinine] |  | 19.8% | 21.3% |  | 
6 | N#C[C@H](O[C@@H]1O[C@H](CO[C@@H]2O[C@H](CO)[C@@H](O)[C@H](O)[C@H]2O)[C@@H](O)[C@H](O)[C@H]1O)c1ccccc1 [Amygdalin] |  | 0.1% | 20.7% |  | 
7 | CC[C@@H]1/C=C(\C)C[C@H](C)C[C@H](OC)[C@H]2O[C@@](O)(C(=O)C(=O)N3CCCC[C@H]3C(=O)O[C@H](/C(C)=C/[C@@H]3CC[C@@H](O)[C@H](OC)C3)[C@H](C)[C@@H](O)CC1=O)[C@H](C)C[C@@H]2OC [Ascomycin] |  | 12.5 | 17.9 |  | 
8 | CC(C)[C@H]1OC(=O)[C@H](Cc2ccccc2)N(C)C(=O)[C@@H](C(C)C)OC(=O)[C@H](Cc2ccccc2)N(C)C(=O)[C@@H](C(C)C)OC(=O)[C@H](Cc2ccccc2)N(C)C1=O [Beauvericin] |  | -1.9 | 24.3 |  | 
9 | C/C=C\c1cc(OC)c(OC)cc1OC [Beta-asarone] |  | 0.1% | 28.9% |  | 
10 | CN1CCc2cc3c(cc2[C@H]1[C@@H]1OC(=O)c2c1ccc1c2OCO1)OCO3 [Bicuculline] |  | -0.3% | 0% |  | 
11 | C[C@]12CC[C@H](O)C[C@H]1CC[C@@H]1[C@@H]2CC[C@]2(C)[C@@H](c3ccc(=O)oc3)CC[C@]12O [Bufalin] |  | -7.6% | 19.3% |  | 
12 | CC[C@H]1CN2CCc3cc(OC)c(OC)cc3[C@@H]2C[C@@H]1C[C@H]1NCCc2cc(O)c(OC)cc21 [Cephaeline (dihydrochloride)] |  | 7.6% | 17.7% |  | 
13 | CC(=O)O[C@H]1[C@H]2O[C@]23[C@@H]2CC[C@]4(O)C[C@@H](O)CC[C@]4(C)[C@H]2CC[C@]3(C)[C@H]1c1ccc(=O)oc1 [Cinobufotalin] |  | 11.4% | 9.3% |  | 
14 | CC1=C2C(=CO[C@H](C)[C@H]2C)C(O)=C(C(=O)O)C1=O [Citrinin] |  | -8.1% | 12% |  | 
15 | COc1cc2c(c(OC)c1OC)-c1ccc(OC)c(=O)cc1[C@@H](NC(C)=O)CC2 [Colchicine] |  | -3.5 | 13.9 |  | 
16 | CC(=O)C1=C(O)[C@@H]2[C@H]3c4c[nH]c5cccc(c45)C[C@H]3C(C)(C)N2C1=O [Cyclopiazonic acid] |  | 0% | 0% |  | 
17 | CO[C@H]1CC=C2CCN3CCC4=C(CC(=O)OC4)[C@]23C1 [Dihydro-β-erythroidine (hydrobromide)] |  | -0.7% | 0% |  | 
18 | COc1cc(CNC(=O)CCCCCCC(C)C)ccc1O [Dihydrocapsaicin] |  | 7.9 | 7.8 |  | 
19 | C=C(C)c1cc2cc(C(C)=O)c(O)cc2o1 [Euparin] |  | 4.4% | 14.2% |  | 
20 | C=C[C@@H](O)C#CC#C[C@@H](O)/C=C\CCCCCCC [Falcarindiol] |  | -0.3% | 34% |  | 
21 | CCc1c(Cl)c(O)c(Cl)c(O)c1C(=O)O[C@H]1[C@H](O)[C@H](OC)[C@H](OC/C2=C\C=C\C[C@H](O)/C(C)=C/[C@H](CC)[C@@H](O[C@@H]3OC(C)(C)[C@@H](OC(=O)C(C)C)[C@H](O)[C@@H]3O)/C(C)=C/C(C)=C/C[C@@H]([C@@H](C)O)OC2=O)O[C@@H]1C [Fidaxomicin] |  | 15 | 27.3 |  | 
22 | CCCCc1ccc(C(=O)O)nc1 [Fusaric acid] |  | 0.1% | 12.7% |  | 
23 | CN[C@H]1[C@H](O)[C@H](O[C@@H]2[C@@H](O)[C@H](O[C@H]3O[C@H](C(C)O)[C@@H](O)[C@H](O)[C@H]3N)[C@@H](N)C[C@H]2N)OC[C@@]1(C)O (some centres unmarked) [G-418 (disulfate)] |  | 4.1% | 29.4% |  | 

Row | SMILES | selectivity index (SI) (Huh-7 cells; CC50 versus EC50, HCoV-229E in Huh-7 and HCoV-OC43 in RD cells) | OC43 Inhibition rate (HCoV-OC43 [1]) | 229E Inhibition rate (HCoV-229E) | selectivity index (SI) (Huh-7 cells) | suppression of viral replication (HCoV-OC43 [2])
24 | C=C[C@]12CN(C)[C@@H]3[C@H]4CO[C@H](C[C@H]41)[C@]1(C(=O)Nc4ccccc41)[C@@H]32 [Gelsemine] |  | -0.3% | 21.7% |  | 
25 | CN1C(=O)[C@]23CC4=CC=C[C@H](O)[C@H]4N2C(=O)[C@@]1(CO)SS3 [Gliotoxin] |  | -0.7% | 0.7% |  | 
26 | Cc1nccc2c1[nH]c1ccccc12 [Harmane] |  | 0.2% | 0% |  | 
27 | COc1ccc2c(c1OC)C(=O)O[C@@H]2[C@H]1c2cc3c(cc2CCN1C)OCO3 [Hydrastine] |  | -0.2% | 28.1% |  | 
28 | COc1c2c3c4c(c(OC)c(=O)c5c(O)cc(OC)c(c6c(OC)cc(O)c(c1=O)c63)c54)[C@@H](C(C)=O)[C@@](C)(O)C2 [Hypocrellin A] |  | -1.7% | 4.6% |  | 
29 | N[C@H](C(=O)O)c1cc(O)no1 [Ibotenic acid] |  | 3.8% | 11.4% |  | 
30 | CC1=C2C(=O)[C@H]3[C@@H](CC=C4C[C@@H](O)CC[C@@]43C)[C@@H]2CC[C@]12O[C@@H]1C[C@H](C)CN[C@H]1[C@H]2C [Jervine] |  | -0.3% | 3.8% |  | 
31 | C=C(C)[C@H]1CN[C@H](C(=O)O)[C@H]1CC(=O)O [Kainic acid] |  | 2.1% | 14.3% |  | 
32 | CCC(=O)O[C@@H]1CC(=O)O[C@H](C)C/C=C/C=C/[C@H](O)[C@H](C)C[C@H](CC=O)[C@H](O[C@@H]2O[C@H](C)[C@@H](O[C@H]3C[C@@](C)(O)[C@@H](OC(=O)CC)[C@H](C)O3)[C@H](N(C)C)[C@H]2O)[C@H]1OC [Midecamycin] |  | -1.1 | 12.9 |  | 
33 | N#C[C@@H](O[C@@H]1O[C@H](CO[C@@H]2O[C@H](CO)[C@@H](O)[C@H](O)[C@H]2O)[C@@H](O)[C@H](O)[C@H]1O)c1ccccc1 [Neoamygdalin] |  | -0.4% | 63.2% |  | 
34 | O=C1C=C2C(=CCOC2O)O1 (centres unmarked) [Patulin] |  | -3.1% | 3.7% |  | 
35 | C[C@H]1CCC2N(C1)C[C@H]1C3CC4[C@@H](CC(=O)C5C[C@@H](O)CC[C@@]54C)C3CCC1[C@]2(C)O (some centres unmarked) [Peiminine] |  | 1% | 21.8% |  | 
36 | CC(C)CCC(=O)c1ccoc1 [Perilla ketone] |  | 2.5% | 9.1% |  | 
37 | CC(C)C1=CC(=O)[C@@](C)([C@H]2[C@H](O)C[C@@]3(C)[C@@H]4CC=C5[C@@H](CC[C@@H](O[C@@H]6OC[C@@H](O)[C@H](O)[C@H]6O[C@@H]6O[C@@H](C)[C@H](O)[C@@H](O)[C@H]6O)C5(C)C)[C@]4(C)C(=O)C[C@]23C)O1 [Picfeltarraenin IA] |  | -0.3% | 0% |  | 
38 | C[C@@H]1O[C@@H](O[C@@H]2C=C3CC[C@@H]4[C@H](CC[C@]5(C)[C@@H](c6ccc(=O)oc6)CC[C@]45O)[C@@]3(C)CC2)[C@H](O)[C@H](O)[C@H]1O [Proscillaridin A] |  | -0.6% | 21.1% |  | 
39 | CC1=C2[C@H]3OC(=O)[C@@H](C)[C@@H]3CC[C@@]2(C)C=CC1=O [Santonin] |  | -0.5% | 22.7% |  | 
40 | C[C@H]1CC[C@@H]2N(C1)C[C@H]1[C@@H]3C[C@H]4[C@@H](CC(=O)[C@H]5C[C@@H](O)CC[C@@]54C)[C@@H]3CC[C@H]1[C@]2(C)O [Sipeimine] |  | -1% | 43.3% |  | 
41 | O=c1cc(-c2ccc(O)cc2)oc2c([C@@H]3O[C@H](CO)[C@@H](O)[C@H](O)[C@H]3O)c(O)cc(O)c12 [Vitexin] |  | 0% | 10.4% |  | 
42 | C[C@H]1CC[C@@H]2N(C1)C[C@H]1[C@@H]3C[C@H]4[C@@H](CC(=O)[C@H]5C[C@H](O)CC[C@@]54C)[C@@H]3CC[C@H]1[C@]2(C)O [Yubeinine] |  | 0% | 8.8% |  | 
43 | C/C=C/c1cc(OC)c(OC)cc1OC [alpha-Asarone] |  | 1.2% | 14.4% |  | 
44 | COC[C@@H]1CCCN1S(=O)(=O)c1ccc2c(c1)C(=O)C(=O)N2 [caspase-3/7 inhibitor I, (S)-(+)-5-[1-(2-methoxymethylpyrrolidinyl)sulfonyl]isatin, reference compound] |  |  |  |  | not effective
45 | C[C@H]1CC[C@@H]2[C@@H](C)[C@H]3[C@H](C[C@H]4[C@@H]5CC=C6C[C@@H](O[C@@H]7O[C@H](CO)[C@H](O)[C@H](O[C@@H]8O[C@H](CO)[C@@H](O)[C@H](O)[C@H]8O)[C@H]7O[C@@H]7O[C@@H](C)[C@H](O)[C@@H](O)[C@H]7O)CC[C@]6(C)[C@H]5CC[C@]34C)N2C1 [α-Solanine] |  | 23.1% | 9.3% |  | 
46 | C[C@H]1CCC[C@@H](O)CCC/C=C/c2cc(O)cc(O)c2C(=O)O1 [β-Zearalenol] |  | 39.8 | 60.6 |  | 
